Experimental data taken from PubChem BioAssay (NCI).
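Five compound concentrations were applied to cells in 96-well plates for 48 hours; endpoints were derived by simple linear interpolation of the resulting dose-response curve. GI50: concentration for 50% inhibition of growth. Definition used: TGI = concentration required for complete inhibition of growth.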

Experiments:
Assay in all cases: NCI tumour cell line growth inhibition, 48 h
SF-539 CNS = system: SF-539 CNS
M14 melanoma = system: M14 melanoma
T-47D breast = system: T-47D breast
LOX IMVI melanoma = system: LOX IMVI melanoma
SN12C renal = system: SN12C renal
IGROV1 ovarian = system: IGROV1 ovarian
HCT-116 colon = system: HCT-116 colon
RPMI-8226 leukemia = system: RPMI-8226 leukemia
COLO 205 colon = system: COLO 205 colon
CAKI-1 renal = system: CAKI-1 renal
MOLT-4 leukemia = system: MOLT-4 leukemia
KM12 colon = system: KM12 colon
HT29 colon = system: HT29 colon
NCI-H522 lung = system: NCI-H522 lung
NCI-H460 lung = system: NCI-H460 lung
SK-MEL-2 melanoma = system: SK-MEL-2 melanoma
UACC-62 melanoma = system: UACC-62 melanoma
NCI/ADR-RES ovarian = system: NCI/ADR-RES ovarian
MDA-MB-435 = system: MDA-MB-435
RXF 393 renal = system: RXF 393 renal
786-0 renal = system: 786-0 renal
TK-10 renal = system: TK-10 renal
CCRF-CEM leukemia = system: CCRF-CEM leukemia
NCI-H226 lung = system: NCI-H226 lung
EKVX NSCLC = system: EKVX NSCLC
ACHN renal = system: ACHN renal
SW-620 colon = system: SW-620 colon
SNB-75 CNS = system: SNB-75 CNS
SF-268 CNS = system: SF-268 CNS
PC-3 prostate = system: PC-3 prostate
K-562 leukemia = system: K-562 leukemia
HS 578T breast = system: HS 578T breast
MCF7 breast = system: MCF7 breast
OVCAR-3 ovarian = system: OVCAR-3 ovarian
OVCAR-8 ovarian = system: OVCAR-8 ovarian
UO-31 renal = system: UO-31 renal
MDA-MB-231 breast = system: MDA-MB-231 breast
SK-MEL-5 melanoma = system: SK-MEL-5 melanoma
OVCAR-4 ovarian = system: OVCAR-4 ovarian
SF-295 CNS = system: SF-295 CNS
HL-60(TB) leukemia = system: HL-60(TB) leukemia
NCI-H23 lung = system: NCI-H23 lung
HCC-2998 colon = system: HCC-2998 colon
HOP-92 NSCLC = system: HOP-92 NSCLC
HCT-15 colon = system: HCT-15 colon
SNB-19 CNS = system: SNB-19 CNS
A549 NSCLC = system: A549 NSCLC
UACC-257 melanoma = system: UACC-257 melanoma
BT-549 breast = system: BT-549 breast
OVCAR-5 ovarian = system: OVCAR-5 ovarian
SK-MEL-28 melanoma = system: SK-MEL-28 melanoma
DU-145 prostate = system: DU-145 prostate
A498 renal = system: A498 renal
HOP-62 NSCLC = system: HOP-62 NSCLC
SR leukemia = system: SR leukemia

With `CC(=O)OC1CC2C(C)(C)C(=O)C=C[C@]2(C)C2CC[C@]3(C)C(OCC(=O)[C@H]3c3ccoc3)[C@]12C` (stereo not given in full) as the compound, how does the GI50 (SF-539 CNS) read?
Its GI50 is 15.2 µM.

What about the TGI (SF-539 CNS) of the same compound?
The TGI was 31.3 µM.

What about the GI50 (M14 melanoma) of the same compound?
Its GI50 is 12.4 µM.

And the TGI (M14 melanoma)?
The TGI was 27.3 µM.

What about the GI50 (T-47D breast) of the same compound?
The GI50 was 2.97 µM.

And the TGI (T-47D breast)?
The TGI was 15.4 µM.

And the GI50 (LOX IMVI melanoma)?
The GI50 was 3.94 µM.

What about the TGI (LOX IMVI melanoma) of the same compound?
Its TGI is 14.9 µM.

What about the GI50 (SN12C renal) of the same compound?
The GI50 was 8.64 µM.

And the TGI (SN12C renal)?
The TGI was 28.6 µM.

What about the GI50 (IGROV1 ovarian) of the same compound?
The GI50 was 7.83 µM.

And the TGI (IGROV1 ovarian)?
Its TGI is 34.9 µM.

And the GI50 (HCT-116 colon)?
Its GI50 is 3.42 µM.

And the TGI (HCT-116 colon)?
Its TGI is 11.4 µM.

What about the GI50 (RPMI-8226 leukemia) of the same compound?
Its GI50 is 2.46 µM.

What about the TGI (RPMI-8226 leukemia) of the same compound?
The TGI was 6.8 µM.

And the GI50 (COLO 205 colon)?
The GI50 was 1.91 µM.

And the TGI (COLO 205 colon)?
The TGI was 8.48 µM.

And the GI50 (CAKI-1 renal)?
Its GI50 is 3.58 µM.

What about the TGI (CAKI-1 renal) of the same compound?
The TGI was 23.9 µM.

And the GI50 (MOLT-4 leukemia)?
Its GI50 is 3.62 µM.

And the TGI (MOLT-4 leukemia)?
Its TGI is 22.1 µM.

What about the GI50 (KM12 colon) of the same compound?
The GI50 was 3.77 µM.

And the TGI (KM12 colon)?
Its TGI is 12.3 µM.

And the GI50 (HT29 colon)?
Its GI50 is 2.76 µM.

What about the TGI (HT29 colon) of the same compound?
Its TGI is 11.6 µM.

And the GI50 (NCI-H522 lung)?
Its GI50 is 3.15 µM.

What about the TGI (NCI-H522 lung) of the same compound?
The TGI was 10.1 µM.

And the GI50 (NCI-H460 lung)?
The GI50 was 3.93 µM.

And the TGI (NCI-H460 lung)?
Its TGI is 15.2 µM.

And the GI50 (SK-MEL-2 melanoma)?
The GI50 was 13.8 µM.

What about the TGI (SK-MEL-2 melanoma) of the same compound?
The TGI was 42.3 µM.

What about the GI50 (UACC-62 melanoma) of the same compound?
Its GI50 is 5.89 µM.

And the TGI (UACC-62 melanoma)?
The TGI was 21.7 µM.

And the GI50 (NCI/ADR-RES ovarian)?
Its GI50 is 5.07 µM.

What about the TGI (NCI/ADR-RES ovarian) of the same compound?
Its TGI is 22.9 µM.

What about the GI50 (MDA-MB-435) of the same compound?
The GI50 was 2.53 µM.

What about the TGI (MDA-MB-435) of the same compound?
Its TGI is 8.58 µM.

What about the GI50 (RXF 393 renal) of the same compound?
The GI50 was 4.43 µM.

What about the TGI (RXF 393 renal) of the same compound?
Its TGI is 18.8 µM.

And the GI50 (786-0 renal)?
The GI50 was 4.66 µM.

What about the TGI (786-0 renal) of the same compound?
Its TGI is 21.7 µM.

And the GI50 (TK-10 renal)?
Its GI50 is 10.4 µM.

And the TGI (TK-10 renal)?
Its TGI is 35.7 µM.

What about the GI50 (CCRF-CEM leukemia) of the same compound?
Its GI50 is 4.06 µM.

And the TGI (CCRF-CEM leukemia)?
The TGI was 16.3 µM.

What about the GI50 (NCI-H226 lung) of the same compound?
Its GI50 is 11.8 µM.

What about the TGI (NCI-H226 lung) of the same compound?
Its TGI is 31.4 µM.

What about the GI50 (EKVX NSCLC) of the same compound?
Its GI50 is 18 µM.

And the TGI (EKVX NSCLC)?
Its TGI is greater than 100 µM.

What about the GI50 (ACHN renal) of the same compound?
The GI50 was 13.4 µM.

And the TGI (ACHN renal)?
Its TGI is 31.4 µM.

And the GI50 (SW-620 colon)?
The GI50 was 11.1 µM.

What about the TGI (SW-620 colon) of the same compound?
The TGI was 39.3 µM.

What about the GI50 (SNB-75 CNS) of the same compound?
The GI50 was 4.68 µM.

What about the TGI (SNB-75 CNS) of the same compound?
Its TGI is 17.1 µM.

And the GI50 (SF-268 CNS)?
The GI50 was 2.82 µM.

And the TGI (SF-268 CNS)?
Its TGI is 10.5 µM.

And the GI50 (PC-3 prostate)?
The GI50 was 3.88 µM.

And the TGI (PC-3 prostate)?
The TGI was 17.1 µM.

And the GI50 (K-562 leukemia)?
The GI50 was 2.25 µM.

And the TGI (K-562 leukemia)?
The TGI was 7.04 µM.

And the GI50 (HS 578T breast)?
Its GI50 is 19.4 µM.

And the TGI (HS 578T breast)?
Its TGI is greater than 100 µM.

What about the GI50 (MCF7 breast) of the same compound?
Its GI50 is 6.6 µM.

And the TGI (MCF7 breast)?
The TGI was 35.7 µM.

And the GI50 (OVCAR-3 ovarian)?
Its GI50 is 5.56 µM.

And the TGI (OVCAR-3 ovarian)?
Its TGI is 22.9 µM.

What about the GI50 (OVCAR-8 ovarian) of the same compound?
The GI50 was 8.3 µM.

And the TGI (OVCAR-8 ovarian)?
Its TGI is 27.6 µM.

What about the GI50 (UO-31 renal) of the same compound?
Its GI50 is 10.1 µM.

And the TGI (UO-31 renal)?
Its TGI is 22.6 µM.

And the GI50 (MDA-MB-231 breast)?
Its GI50 is 8.99 µM.

What about the TGI (MDA-MB-231 breast) of the same compound?
Its TGI is 29.4 µM.

What about the GI50 (SK-MEL-5 melanoma) of the same compound?
Its GI50 is 11.5 µM.

What about the TGI (SK-MEL-5 melanoma) of the same compound?
Its TGI is 28 µM.

What about the GI50 (OVCAR-4 ovarian) of the same compound?
Its GI50 is 4.2 µM.

What about the TGI (OVCAR-4 ovarian) of the same compound?
Its TGI is 17.2 µM.

What about the GI50 (SF-295 CNS) of the same compound?
The GI50 was 16.5 µM.

What about the TGI (SF-295 CNS) of the same compound?
The TGI was 48.6 µM.

And the GI50 (HL-60(TB) leukemia)?
Its GI50 is 3.11 µM.

What about the TGI (HL-60(TB) leukemia) of the same compound?
Its TGI is 17.8 µM.

And the GI50 (NCI-H23 lung)?
The GI50 was 8.66 µM.

And the TGI (NCI-H23 lung)?
Its TGI is 26.5 µM.

What about the GI50 (HCC-2998 colon) of the same compound?
The GI50 was 11.3 µM.

What about the TGI (HCC-2998 colon) of the same compound?
Its TGI is 24.7 µM.

And the GI50 (HOP-92 NSCLC)?
Its GI50 is 10.7 µM.

And the TGI (HOP-92 NSCLC)?
Its TGI is 35.5 µM.

And the GI50 (HCT-15 colon)?
The GI50 was 4.19 µM.

What about the TGI (HCT-15 colon) of the same compound?
Its TGI is 15.8 µM.

And the GI50 (SNB-19 CNS)?
Its GI50 is 6.53 µM.

And the TGI (SNB-19 CNS)?
The TGI was 21.2 µM.

What about the GI50 (A549 NSCLC) of the same compound?
The GI50 was 6.28 µM.

And the TGI (A549 NSCLC)?
The TGI was 23.1 µM.

And the GI50 (UACC-257 melanoma)?
The GI50 was 2.51 µM.

What about the TGI (UACC-257 melanoma) of the same compound?
The TGI was 15 µM.

And the GI50 (BT-549 breast)?
Its GI50 is 8.63 µM.

And the TGI (BT-549 breast)?
The TGI was 57.8 µM.

What about the GI50 (OVCAR-5 ovarian) of the same compound?
The GI50 was 23.9 µM.

What about the TGI (OVCAR-5 ovarian) of the same compound?
Its TGI is 46.2 µM.

And the GI50 (SK-MEL-28 melanoma)?
Its GI50 is 4.63 µM.

What about the TGI (SK-MEL-28 melanoma) of the same compound?
The TGI was 18.5 µM.

What about the GI50 (DU-145 prostate) of the same compound?
The GI50 was 3.89 µM.

And the TGI (DU-145 prostate)?
Its TGI is 19.8 µM.

And the GI50 (A498 renal)?
The GI50 was 12.7 µM.

And the TGI (A498 renal)?
Its TGI is 29.7 µM.

What about the GI50 (HOP-62 NSCLC) of the same compound?
Its GI50 is 8.29 µM.

What about the TGI (HOP-62 NSCLC) of the same compound?
The TGI was 21.6 µM.

And the GI50 (SR leukemia)?
Its GI50 is 2.27 µM.

And the TGI (SR leukemia)?
Its TGI is 14.5 µM.
